Values joined by “and” are separate entries in the source; they are usually repeats but may differ in a detail not shown here. Identical values can stand only once. Numbers after ± are expanded uncertainties.
Settings: transient hot wire

O=C(C(F)(F)C(F)(F)F)C(F)(C(F)(F)F)C(F)(F)F [dodecafluoro-2-methylpentan-3-one]
thermal conductivity (359 K, 91 kPa, Gas): 0.0172 ± 0.0011 W/m/K and 0.01701 ± 0.001 W/m/K | thermal conductivity (359.01 K, 17992 kPa, Liquid): 0.05723 ± 0.0012 W/m/K | thermal conductivity (359.02 K, 33597 kPa, Liquid): 0.06346 ± 0.0013 W/m/K | thermal conductivity (359.03 K, 33605 kPa, Liquid): 0.06342 ± 0.0013 W/m/K | thermal conductivity (359.05 K, 56095 kPa, Liquid): 0.07054 ± 0.0014 W/m/K | thermal conductivity (359.05 K, 56112 kPa, Liquid): 0.07057 ± 0.0014 W/m/K | thermal conductivity (359.07 K, 256 kPa, Gas): 0.0162 ± 0.001 W/m/K | thermal conductivity (359.07 K, 257 kPa, Gas): 0.01618 ± 0.001 W/m/K | thermal conductivity (359.07 K, 11964 kPa, Liquid): 0.05443 ± 0.0011 W/m/K | thermal conductivity (359.07 K, 11965 kPa, Liquid): 0.05441 ± 0.0011 W/m/K | thermal conductivity (359.13 K, 188 kPa, Gas): 0.01636 ± 0.001 W/m/K | thermal conductivity (359.13 K, 24956 kPa, Liquid): 0.06016 ± 0.0012 W/m/K | thermal conductivity (359.14 K, 7109 kPa, Liquid): 0.05182 ± 0.0011 W/m/K | thermal conductivity (359.14 K, 7110 kPa, Liquid): 0.05179 ± 0.0011 W/m/K | thermal conductivity (359.14 K, 24956 kPa, Liquid): 0.06017 ± 0.0012 W/m/K | thermal conductivity (359.14 K, 43845 kPa, Liquid): 0.06681 ± 0.0014 W/m/K | thermal conductivity (359.14 K, 43855 kPa, Liquid): 0.06693 ± 0.0014 W/m/K | thermal conductivity (359.16 K, 26 kPa, Gas): 0.01687 ± 0.001 W/m/K | thermal conductivity (359.16 K, 67834 kPa, Liquid): 0.07385 ± 0.0015 W/m/K | thermal conductivity (359.17 K, 67856 kPa, Liquid): 0.07389 ± 0.0015 W/m/K | thermal conductivity (359.19 K, 3417 kPa, Liquid): 0.04968 ± 0.001 W/m/K | thermal conductivity (359.19 K, 3419 kPa, Liquid): 0.04955 ± 0.001 W/m/K | thermal conductivity (359.22 K, 17993 kPa, Liquid): 0.05729 ± 0.0012 W/m/K and 0.05726 ± 0.0012 W/m/K | thermal conductivity (359.22 K, 33590 kPa, Liquid): 0.06336 ± 0.0013 W/m/K | thermal conductivity (359.23 K, 33591 kPa, Liquid): 0.06345 ± 0.0013 W/m/K | thermal conductivity (359.24 K, 91 kPa, Gas): 0.01701 ± 0.001 W/m/K and 0.01691 ± 0.001 W/m/K | thermal conductivity (359.24 K, 56073 kPa, Liquid): 0.07065 ± 0.0014 W/m/K | thermal conductivity (359.24 K, 56086 kPa, Liquid): 0.07061 ± 0.0014 W/m/K | thermal conductivity (359.27 K, 352 kPa, Liquid): 0.04733 ± 0.00099 W/m/K and 0.04736 ± 0.00099 W/m/K | thermal conductivity (359.28 K, 352 kPa, Liquid): 0.04735 ± 0.00099 W/m/K | thermal conductivity (359.29 K, 352 kPa, Liquid): 0.04741 ± 0.00099 W/m/K | thermal conductivity (359.29 K, 11963 kPa, Liquid): 0.05419 ± 0.0011 W/m/K | thermal conductivity (359.29 K, 11964 kPa, Liquid): 0.05442 ± 0.0011 W/m/K | thermal conductivity (359.3 K, 256 kPa, Gas): 0.01611 ± 0.001 W/m/K | thermal conductivity (359.31 K, 256 kPa, Gas): 0.01615 ± 0.001 W/m/K | thermal conductivity (359.32 K, 43840 kPa, Liquid): 0.06681 ± 0.0014 W/m/K | thermal conductivity (359.33 K, 24951 kPa, Liquid): 0.06022 ± 0.0012 W/m/K | thermal conductivity (359.34 K, 24951 kPa, Liquid): 0.06017 ± 0.0012 W/m/K | thermal conductivity (359.34 K, 43843 kPa, Liquid): 0.06687 ± 0.0014 W/m/K | thermal conductivity (359.35 K, 67807 kPa, Liquid): 0.07425 ± 0.0015 W/m/K | thermal conductivity (359.36 K, 7099 kPa, Liquid): 0.0518 ± 0.0011 W/m/K | thermal conductivity (359.36 K, 67822 kPa, Liquid): 0.07392 ± 0.0015 W/m/K | thermal conductivity (359.37 K, 187 kPa, Gas): 0.01646 ± 0.001 W/m/K | thermal conductivity (359.37 K, 7108 kPa, Liquid): 0.05182 ± 0.0011 W/m/K | thermal conductivity (359.38 K, 187 kPa, Gas): 0.01639 ± 0.001 W/m/K | thermal conductivity (359.4 K, 26 kPa, Gas): 0.01671 ± 0.001 W/m/K | thermal conductivity (359.41 K, 26 kPa, Gas): 0.01672 ± 0.001 W/m/K | thermal conductivity (359.42 K, 3418 kPa, Liquid): 0.04952 ± 0.001 W/m/K | thermal conductivity (359.42 K, 3419 kPa, Liquid): 0.04953 ± 0.001 W/m/K | thermal conductivity (359.42 K, 33575 kPa, Liquid): 0.06335 ± 0.0013 W/m/K | thermal conductivity (359.43 K, 33582 kPa, Liquid): 0.06336 ± 0.0013 W/m/K | thermal conductivity (359.43 K, 56047 kPa, Liquid): 0.07056 ± 0.0014 W/m/K | thermal conductivity (359.44 K, 17994 kPa, Liquid): 0.05721 ± 0.0012 W/m/K | thermal conductivity (359.44 K, 18001 kPa, Liquid): 0.05746 ± 0.0012 W/m/K | thermal conductivity (359.44 K, 56060 kPa, Liquid): 0.07057 ± 0.0014 W/m/K | thermal conductivity (359.5 K, 91 kPa, Gas): 0.01707 ± 0.0011 W/m/K | thermal conductivity (359.51 K, 91 kPa, Gas): 0.017 ± 0.001 W/m/K | thermal conductivity (359.51 K, 11963 kPa, Liquid): 0.05441 ± 0.0011 W/m/K | thermal conductivity (359.52 K, 352 kPa, Liquid): 0.04737 ± 0.00099 W/m/K and 0.04738 ± 0.00099 W/m/K | thermal conductivity (359.52 K, 353 kPa, Liquid): 0.04735 ± 0.00099 W/m/K | thermal conductivity (359.52 K, 11964 kPa, Liquid): 0.05441 ± 0.0011 W/m/K | thermal conductivity (359.53 K, 352 kPa, Liquid): 0.04692 ± 0.00098 W/m/K | thermal conductivity (359.54 K, 43829 kPa, Liquid): 0.06685 ± 0.0014 W/m/K | thermal conductivity (359.54 K, 43830 kPa, Liquid): 0.06684 ± 0.0014 W/m/K | thermal conductivity (359.55 K, 24946 kPa, Liquid): 0.06014 ± 0.0012 W/m/K | thermal conductivity (359.55 K, 24949 kPa, Liquid): 0.06011 ± 0.0012 W/m/K | thermal conductivity (359.56 K, 256 kPa, Gas): 0.01628 ± 0.001 W/m/K | thermal conductivity (359.57 K, 256 kPa, Gas): 0.01631 ± 0.001 W/m/K | thermal conductivity (359.6 K, 7096 kPa, Liquid): 0.05174 ± 0.0011 W/m/K | thermal conductivity (359.6 K, 7098 kPa, Liquid): 0.05175 ± 0.0011 W/m/K | thermal conductivity (359.63 K, 33565 kPa, Liquid): 0.06333 ± 0.0013 W/m/K | thermal conductivity (359.64 K, 187 kPa, Gas): 0.01647 ± 0.001 W/m/K and 0.01644 ± 0.001 W/m/K | thermal conductivity (359.64 K, 33572 kPa, Liquid): 0.06333 ± 0.0013 W/m/K | thermal conductivity (359.66 K, 18006 kPa, Liquid): 0.0572 ± 0.0012 W/m/K | thermal conductivity (359.67 K, 3420 kPa, Liquid): 0.04948 ± 0.001 W/m/K | thermal conductivity (359.67 K, 3421 kPa, Liquid): 0.04951 ± 0.001 W/m/K | thermal conductivity (359.67 K, 18004 kPa, Liquid): 0.05719 ± 0.0012 W/m/K | thermal conductivity (359.7 K, 26 kPa, Gas): 0.0168 ± 0.001 W/m/K and 0.01681 ± 0.001 W/m/K | thermal conductivity (359.75 K, 11967 kPa, Liquid): 0.05434 ± 0.0011 W/m/K | thermal conductivity (359.76 K, 11965 kPa, Liquid): 0.05435 ± 0.0011 W/m/K | thermal conductivity (359.77 K, 353 kPa, Liquid): 0.04733 ± 0.00099 W/m/K | thermal conductivity (359.78 K, 352 kPa, Liquid): 0.0473 ± 0.00099 W/m/K and 0.04737 ± 0.00099 W/m/K | thermal conductivity (359.78 K, 353 kPa, Liquid): 0.0473 ± 0.00099 W/m/K | thermal conductivity (359.78 K, 24941 kPa, Liquid): 0.06008 ± 0.0012 W/m/K

Reference: the NIST ThermoML archive (doi:10.1021/acs.jced.8b00132)
